Data as given in patent publication US9296760B2, “Antibacterial compounds” (JANSSEN SCIENCES IRELAND UC, priority 2012, dated 2016).
≈ marks a conversion by molar mass, not a printed value.

Key:
[1] = molecular target: T1, S. aureus ATCC 29213 FabI (Staphylococcus aureus, UniProt Q6GI75); test: Staphylococcus aureus FabI enzyme inhibition assay; assay type: biochemical; settings: NADH consumption, 30 minutes, read-out: FabI (300.235) IC50 (converted)
T1 sequence (Q6GI75 1-256): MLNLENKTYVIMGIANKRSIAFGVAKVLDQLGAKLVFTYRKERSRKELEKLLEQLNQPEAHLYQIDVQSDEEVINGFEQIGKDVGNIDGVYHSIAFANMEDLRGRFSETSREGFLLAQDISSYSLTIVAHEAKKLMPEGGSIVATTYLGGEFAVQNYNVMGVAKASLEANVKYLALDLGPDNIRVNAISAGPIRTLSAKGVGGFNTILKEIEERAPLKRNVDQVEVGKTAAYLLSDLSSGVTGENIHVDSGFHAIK
Experimental: Y.1 FabI Enzyme Inhibition: Staphylococcus aureus FabI Enzyme Inhibition Assay
FabI enzyme inhibition assays were carried out in half-area, 384-well microtitre plates. […] The reaction mixtures were incubated for 30 minutes at room temperature and the reaction was stopped by adding 200 mM Tris buffer (pH 9.0) to create a pH-shift. The consumption of NADH was monitored by measuring the change in absorbance at […]. By comparing sample readings to those of negative (absence of compound) and positive (absence of enzyme) controls, the percent inhibition of enzymatic activity of the compounds was determined A best-fit curve is fitted by a minimum of squares method. From this an IC50-value (expressed in μg/ml), resulting in 50% inhibition of enzymatic activity, was obtained.

[2] = test system: Staphylococcus aureus ATCC 29213; test: Antibacterial susceptibility testing, IC90 determination (broth microdilution, resazurin); assay type: cell-based; settings: Staphylococcus aureus, ATCC29213, S. aureus ATCC 29213; 90% inhibitory concentration for bacterial growth; read-out: STA (361.159) IC90
Experimental: Y.2 In Vitro Method for Testing Compounds for Antibacterial Activity Against Various Bacterial Strains
Preparation of Bacterial Suspensions for Susceptibility Testing
The following bacteria were used: Staphylococcus aureus ATCC 29213, methicillin-resistant Staphylococcus aureus (MRSA) ATCC 700788 and Escherichia coli ATCC 35218. The bacteria used in this study were grown overnight in flasks containing 100 ml Mueller-Hinton broth (Difco cat. nr. 0757-17) in sterile de-ionized water, with shaking, at 37° C. Stocks were store at −70° C. until use.
Bacteria were incubated on a tryptic soy agar plate containing 5% sheep blood (Becton Dickinson cat. nr. 254053) for 18-24 hours at 35° C. in aerobic conditions (first passage). For the second passage, fresh Mueller-Hinton broth is inoculated with 5-10 colonies and grown overnight at 35° C. until turbidity (reaching log-phase) in aerobic conditions is reached. The bacterial suspension is then adjusted to 0.5 McFarland density and further diluted 1:100 in Mueller Hinton broth medium. This is used as inoculum.
The result(s) are depicted the table below (for STA ATCC 29213).
Antibacterial Susceptibility Testing: IC90 Determination
(§1) MIC assays were performed by the broth microdilution method in a 96-well format (flat-bottom microtitre plates) with a final volume of 0.1 ml Mueller Hinton broth containing two-fold serial dilutions of compounds and inoculated with 5×10^5 CFU/ml of bacteria (standard inoculum size according to CLSI guidelines). Inhibitors are typically varied over the range of 63 to 0.49 μM. The final DMSO concentration in the assay was 1.25% (maximum tolerable DMSO concentration=6%). In the assays where the effect of human serum on the activity of the compounds against S. aureus was tested, human serum was added at a final concentration of 10%. The plates were incubated at 35° C. for 16-20 hours. At the end of incubation the bacterial growth was quantified fluorometrically. For this, resazurin was added to all wells and the plates were re-incubated. The incubation time is dependent on the type of bacteria. A change in color from blue to pink indicated the growth of bacteria. The fluorescence was read in computer-controlled fluorometer (Fluoroskan Ascent FL, Labsystems) at an excitation wavelength 540 nm and an emission wavelength of 590 nm. The % growth inhibition achieved by the compounds was calculated according to standard methods. The IC90 (expressed in μg/ml) was defined as the 90% inhibitory concentration for bacterial growth. A panel of reference compounds were simultaneously tested for QC approval.

S. aureus = test: Antibacterial susceptibility testing, IC90 determination with 10% human serum; assay type: cell-based, Staphylococcus aureus; settings: Staphylococcus aureus, S. aureus with human serum at final concentration of 10%; read-out: STA + 10% HS (361.169) IC90
Experimental: as §1, with “Antibacterial Susceptibility Testing: IC90 Determination MIC” for “MIC”, “approval. The results are depicted in the table(s) below (STA+10% HS).” for “approval.”

Cytotoxicity MTT assay = assay type: cell-based, Human; settings: human, HelaM cells, read-out: HELAM (222.125) CC50
Experimental: Cytotoxicity of the compounds was evaluated using the MTT assay. Human HelaM cells grown in 96-well plates were exposed to serial dilutions of the tested compounds (final volume of 0.2 ml) and incubated for 72 hours at 37° C. and 5% CO2 Inhibitors are typically varied over the range of 25 to 0.8 μM. The final DMSO concentration in the assay is 0.5%. MTT (3-(4,5-Dimethylthiazol-2-yl)-2,5-diphenyltetrazolium bromide, a tetrazole) was added and reduced to purple formazan only in living cells. Solubilization of the formazan crystals was achieved by adding 100 μl 2-propanol. Cell viability was determined by measuring the absorbance of the reduced formazan, giving a purple color, at 540 nm and 690 nm. The absorbance measured at 690 nm was automatically subtracted from the absorbance at 540 nm, to eliminate the effects of non-specific absorption. The percent cytotoxicity achieved by the compounds was calculated according to standard methods. Cytotoxicity is reported as CC50, the concentration that causes a 50% reduction in cell viability.
The results are depicted in the table(s) below (HELAM).

O=C(/C=C/c1ccc(Nc2ccccc2)nc1)N1CCC=C(c2ccccc2)CC1 [compound 14]
IC50 [1]: 2.25 µM
IC90 [2]: 1.45 µg/mL (≈ 3.67 µM)
IC90 (S. aureus): 24.1 µg/mL
CC50 at 72 h (Cytotoxicity MTT assay): 6.27 µg/mL (≈ 15.9 µM)
melting point: 150 °C

O=C(Nc1ccc(/C=C/C(=O)N2CCC=C(c3ccccc3)CC2)cn1)C1CCCC1 [compound 18]
IC50 [1]: 2.05 µM
IC90 [2]: 6.29 µg/mL (≈ 15.1 µM)
IC90 (S. aureus): > 26.2 µg/mL
CC50 at 72 h (Cytotoxicity MTT assay): 2.62 µg/mL (≈ 6.31 µM)
melting point: 141 °C

O=C(Nc1ccc(/C=C/C(=O)N2CCC=C(c3ccccc3)CC2)cn1)c1ccoc1 [compound 2]
IC50 [1]: 1.19 µM
IC90 [2]: 0.44 µg/mL (≈ 1.06 µM)
IC90 (S. aureus): 1.43 µg/mL
CC50 at 72 h (Cytotoxicity MTT assay): > 10.4 µg/mL
melting point: 156 °C

COc1ccc(F)cc1C1=CCCN(C(=O)/C=C/c2cnc3c(c2)CNCC(=O)N3)CC1 [compound 31]
IC50 [1]: ~0.933 µM
IC90 [2]: < 0.21 µg/mL
IC90 (S. aureus): 0.26 µg/mL
CC50 at 72 h (Cytotoxicity MTT assay): > 11 µg/mL
melting point: 192 °C

CC(=O)N1CCN2Cc3cc(/C=C/C(=O)N4CCC=C(c5ccccc5)CC4)cnc3NC(=O)C2C1 (stereo not shown) [compound 47]
IC50 [1]: 0.783 µM
IC90 [2]: 0.25 µg/mL (≈ 0.515 µM)
IC90 (S. aureus): 0.44 µg/mL
CC50 at 72 h (Cytotoxicity MTT assay): 17.6 µg/mL (≈ 36.3 µM)
melting point: 208 °C

O=C(Nc1ccc(/C=C/C(=O)N2CCC=C(c3ccccc3)CC2)cn1)c1cccnc1 [compound 1]
IC50 [1]: 0.73 µM
IC90 [2]: 0.4 µg/mL (≈ 0.942 µM)
IC90 (S. aureus): 0.84 µg/mL
CC50 at 72 h (Cytotoxicity MTT assay): 0.43 µg/mL (≈ 1.01 µM)
melting point: 186 °C

COc1ccc(F)cc1C1=CCCN(C(=O)/C=C/c2cnc3c(c2)COC(=O)N3)CC1 [compound 35]
IC50 [1]: ~1.02 µM
IC90 [2]: 0.38 µg/mL (≈ 0.897 µM)
IC90 (S. aureus): 0.54 µg/mL
CC50 at 72 h (Cytotoxicity MTT assay): 6.56 µg/mL (≈ 15.5 µM)
melting point: 218.22 °C

O=C1CNCc2cc(/C=C/C(=O)N3CCC=C(c4ccccc4)CC3)cnc2N1 [compound 34]
IC50 [1]: 0.901 µM
IC90 [2]: 0.37 µg/mL (≈ 0.952 µM)
IC90 (S. aureus): 0.38 µg/mL
CC50 at 72 h (Cytotoxicity MTT assay): > 9.76 µg/mL
melting point: 203.18 °C

O=C(Nc1ccc(/C=C/C(=O)N2CCC=C(c3ccccc3)CC2)cn1)c1c[nH]cn1 [compound 11]
IC50 [1]: 1.62 µM
IC90 [2]: 1.26 µg/mL (≈ 3.05 µM)
IC90 (S. aureus): 3.17 µg/mL
CC50 at 72 h (Cytotoxicity MTT assay): > 10.4 µg/mL
melting point: 120 °C

COc1ccc(F)cc1C1=CCCN(C(=O)/C=C/c2ccc(NC(=O)c3cccnc3)nc2)CC1 [compound 3]
IC50 [1]: 1.63 µM
IC90 [2]: 0.45 µg/mL (≈ 0.952 µM)
IC90 (S. aureus): 1.68 µg/mL
CC50 at 72 h (Cytotoxicity MTT assay): 1.13 µg/mL (≈ 2.39 µM)
melting point: 122 °C

O=C1Nc2ncc(/C=C/C(=O)N3CCC=C(c4ccccc4)CC3)cc2CO1 [compound 41]
IC50 [1]: 0.986 µM
IC90 [2]: 0.6 µg/mL (≈ 1.6 µM)
IC90 (S. aureus): 0.67 µg/mL
CC50 at 72 h (Cytotoxicity MTT assay): > 9.43 µg/mL
melting point: 244.33 °C
